Measurements from patent publication US9409876B2, “Bradykinin receptor antagonists and pharmaceutical compositions containing them” (DOMPE' FARMACEUTICI S.P.A., priority 2013, dated 2016).

Legend:
[1] = Metabolic stability in liver microsomes with NADPH; format: in vitro ADME; settings: Wistar, rat, microsomes 0.5 mg/ml, pH 7.4, with NADPH, read-out: intrinsic clearance (CLint)
Protocol: Metabolic stability of compound 8 (R,R) was also determined in rat wistar liver microsomes in the in the presence of NADPH.
The concentration of the compound 8 (R,R) was 1 μM and microsomes 0.5 mg/ml in phosphate buffer 0.1M pH 7.4 with NADPH.
The degradation of the substrates was measured in duplicate by LC/MS/MS during six time points of incubation.

[2] = test system: CCI-induced mechanical allodynia; test: Chronic constriction model of pain, mechanical allodynia; format: in vivo, rat
Protocol: An evaluation of the in vivo activity of compound 8 (R,R) was performed by testing the inhibition potential in mechanical allodynia using the chronic constriction model of pain.
Male Sprague-Dawley (SD) derived rats weighing 180±20 g (at arrival) were provided by BioLasco Taiwan (under Charles River Laboratories Technology Licensee). Space allocation for 5 animals per cage was 45×23×21 cm and maintained in a controlled temperature (20-24° C.) and humidity (50%-80%) environment with 12 hours light/dark cycles for at least three days in Ricerca Biosciences, LLC (Taipei, Taiwan) Laboratory prior to use. Free access to standard lab chow for rats [MF-18 (Oriental Yeast Co., Ltd., Japan)] and tap water was granted. All aspects of this work including housing, experimentation and disposal of animals were performed in general accordance with the Guide for the Care and Use of Laboratory Animals (National Academy Press, Washington, D. C., 2010).
Neuropathic pain behavior was induced by ligation of the sciatic nerve according to the method described by Bennett and Xie [Bennett G. J. and Xie Y. K. A peripheral mononeuropathy in rat that produces disorders of pain sensation like those seen in man, Pain, (1988) 33:87-107]. Briefly, rats were anaesthetized under pentobarbital (50 mg/kg, 5 mL/kg, IP) anesthesia and the sciatic nerve was exposed at mid-thigh level. […]
The rats had access to food and water up to the time of the experiment, and then were placed under inverted Plexiglas cages on a wire mesh rack and allowed to acclimate for 20 to 30 minutes. Allodynia was evaluated using the Chaplin “up/down” method using von Frey hairs [Chaplan, S. R, Bach, F. W., Pogrel, J. W., Chung, J. M. and Yaksh, T. L. Quantitative assessment of tactile allodynia in the rat paw. […]
The threshold of response of the treated rats was compared to respective vehicle treated rats; two-way ANOVA followed by Bonferroni's test was used for comparison between vehicle and treated groups. […] The delta change value at each time point was also calculated. […]

## COc1ccccc1CN(C(=O)CC(C)C)[C@@H](C(=O)NC[C@H]1CCCO1)c1ccc(C)cc1 [Compound 8 (R,R), 3-methyl-N-(2-methoxybenzyl)-N-{[(1R)-1-(4-methylphenyl)]-2-oxo-2-[(2R)-(tetrahydrofuran-2-ylmethyl)amino]ethyl}butanamide]
[1]
  microsomal CLint at 1 μM: 851 µL/min/mg
[2]; 30 mg/kg IV, 2 and 3 hours post-dose
  significant reversal of CCI-induced mechanical allodynia: not at 2 and 3 hours post-dose
[2]; 30 mg/kg IV, 1 hour post-dose
  inhibition of CCI-induced mechanical allodynia: 37%
[2]; chronic constriction model of pain
  inhibitory activity on allodynia: strong inhibitory activity on allodynia
